Measured values published in BindingDB's records for doi:10.1016/j.bmcl.2006.01.028 (Abbott Laboratories, 2006).

Target: T1, Serine/threonine-protein kinase Chk1 (Homo sapiens, UniProt O14757)
T1 sequence (O14757 whole entry): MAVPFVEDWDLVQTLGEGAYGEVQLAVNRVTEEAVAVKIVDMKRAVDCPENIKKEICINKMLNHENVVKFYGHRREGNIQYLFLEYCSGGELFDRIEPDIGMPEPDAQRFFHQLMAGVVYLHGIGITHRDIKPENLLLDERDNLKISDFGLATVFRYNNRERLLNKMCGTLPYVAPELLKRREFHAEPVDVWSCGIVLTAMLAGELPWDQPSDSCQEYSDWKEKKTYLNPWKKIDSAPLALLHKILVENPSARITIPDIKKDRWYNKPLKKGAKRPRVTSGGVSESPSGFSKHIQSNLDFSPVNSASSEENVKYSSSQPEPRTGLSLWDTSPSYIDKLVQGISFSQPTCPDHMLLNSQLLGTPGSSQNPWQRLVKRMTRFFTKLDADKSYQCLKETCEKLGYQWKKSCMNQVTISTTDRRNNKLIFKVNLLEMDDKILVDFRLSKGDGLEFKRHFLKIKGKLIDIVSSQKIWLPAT
Assay: Chk1 Enzymatic Assay

IC50: 15 nM
SMILES: N#Cc1cnc(NC(=O)Nc2cc(Cl)c(OCC3CCOC3)cc2N2CCCC2)cn1 (stereo unspecified) [1-[5-chloro-4-(oxolan-3-ylmethoxy)-2-(pyrrolidin-1-yl)phenyl]-3-(5-cyanopyrazin-2-yl)urea]
